From paper PMC8040626, “A unique Malpighian tubule architecture in Tribolium castaneum informs the evolutionary origins of systemic osmoregulation in beetles” (Proceedings of the National Academy of Sciences of the …, 2021)
Entries after “also recorded” stand apart in the source; their conditions may differ.

Columns and labels:
[1] = test system: tubule basolateral membranes; assay: Ex vivo ligand-receptor binding assay, all beetle species sampled; set-up: species or system all species sampled (beetles)
Excerpt: (§1) Collectively, our work points to a model in which beetle MT function operates via a two-cell–type model that is different from that of all other higher insects ([11]). To determine whether this epithelial organization is universal among beetles or, alternatively, a derived trait specific to the drought-resistant tenebrionid species, we adapted the ligand-receptor binding assay (as used in Fig. 2C) to systematically map MT tissue architecture across the beetle phylogeny. In our sampling strategy, we prioritized species representative of the larger beetle families while trying to select species inhabiting different types of ecological niches (dry, moist, or aquatic). […]
(§2) Ligand-Receptor Binding Assay. […] Next, the tissues were set-up in a matched-pair protocol, in which one batch was incubated in the appropriate insect saline added the labelled neuropeptide analogue ([…]) and DAPI (1 µg ml-1), while the other was incubated in just DAPI; the latter batch was used to adjust baseline filter and exposure settings to minimize auto-fluorescence during image acquisition.
(§3) Images were subsequently recorded on a Zeiss LSM 800 confocal microscope using baseline filter and exposure settings. […]
(§4) Electrophysiological assays. […] In brief, the ion-selective microelectrode voltage was measured at a position close to the tissue (3–5 μm) and subsequently at a more distant position (app. 50 μm) from the tubule. […]

[2] = test system: larger PC-type of MTs; assay: Ex vivo ligand-receptor binding assay, adephagan species
Excerpt: as §1, §2, §3, §4

[3] = test system: small-nucleated SC-type of MTs; assay: Ex vivo ligand-receptor binding assay, polyphagan beetles; conditions: all polyphagan beetles
Excerpt: as §1, §2, §3, §4

[4] = test system: Urn8R on the SC basal membrane; assay: Ex vivo ligand-receptor binding assay, T. castaneum tubules; set-up: species or system Tribolium castaneum; conditions: T. castaneum MTs, labelled peptide 10^-7 M, confocal microscopy
Excerpt: To dissect the molecular mechanism underpinning Urn8-mediated control of tubule function, we immunolocalized Urn8R to the tubule epithelium of T. castaneum. […] The SC identity of this Urn8R-expressing cell type was verified by colocalization of the Tiptop transcription factor, which is known to control SC differentiation in other insects ([21]) (SI Appendix, Fig. S2A). The fact that the Urn8 pathway is confined exclusively to SCs in T. castaneum is in contrast to that of all other insects studied to date in which this hormonal circuit is diagnostic of PC activity, the majority cell type ([22]–[24]). […] Specificity of the antibody was verified by the lack of staining in MTs from Urn8R-silenced animals, and by the fact that the molecular weight of the protein corresponds to the predicted size of the receptor (Fig. 2 A and B). […]
as §2, §3

[5] = test system: basolateral membranes of SCs in MTs; assay: Ex vivo ligand-receptor binding assay, T. molitor tubules; set-up: species or system Tenebrio molitor; conditions: labelled peptide 10^-7 M, confocal microscopy
Excerpt: Fig. 2. The Urn8 receptor localizes to a secondary cell type in MTs and is activated by its endogenous ligands DH37 and DH47. (A) Urn8R is expressed in a subpopulation of cells throughout the “free” part of the T. castaneum MT (small arrows); there are 53 ± 2 (n = 8) cells per tubule. […] (Scale bars, Left, 150 μm; Middle and Right, 30 μm.) (B) Western blot analysis of protein extracts from T. castaneum tubules showing that the anti-Urn8R antiserum recognizes a protein of a size of approximately 50 to 55 kDa, consistent with the predicted size of the receptor (51.6 kDa for the dominant -RA isoform, arrow). (C) Application of fluorophore-coupled receptor agonists DH37-F and DH47-F (10^−7 M) to T. castaneum and T. molitor MTs. […] Values are expressed as mean ± SEM. […]
as §2, §3

Substance	Binding of fluorophore-coupled ligand [1]	Binding of fluorophore-coupled ligand, cell type [2]	Binding of fluorophore-coupled ligand, cell type [3]	Binding of fluorophore-coupled ligand [4]	Binding of fluorophore-coupled ligand [5]
TMR-C5-maleimide-SPTISITAPIDVLRKTWAKENMRKQMQINREYLKNLQamide [DH37-F, fluorophore-coupled DH37 analog, TMR-C5-maleimide labelled]	specific and displaceable	confined to a larger PC-type	localized entirely to a small-nucleated SC-type	bind to basolateral membranes of SCs; also recorded: Specific and displaceable binding to the SCs	bind to basolateral membranes of SCs; also recorded: Specific and displaceable binding to the SCs
TMR-C5-maleimide-AGALGESGASLSIVNSLDVLRNRLLLEIARKKAKEGANRNRQILLSLamide [DH47-F, fluorophore-coupled DH47 analog, TMR-C5-maleimide labelled]	specific and displaceable	confined to a larger PC-type	localized entirely to a small-nucleated SC-type	bind to basolateral membranes of SCs; also recorded: Specific and displaceable binding to the SCs	bind to basolateral membranes of SCs; also recorded: Specific and displaceable binding to the SCs
